Measurements taken from patent publication US6136841A, “3-, 8-substituted deuteroporphyrin derivatives, pharmaceutical agents that contain the latter, process for their production and their use in photodynamic therapy and MRI diagnosis” (Schering Aktiengesellschaft, priority 1998, dated 2000).
Like-named read-outs stand apart in the source and are kept apart here.

Experiments:
[1] = test system: human colon carcinoma (HT-29 P9); assay: Phototoxicity on a tumor cell culture, xenon lamp irradiation, live-dead coloration (Example 11); assay type: cell-based; conditions: irradiated with xenon lamp 8.5 k Lux, UV filter, three days; PE = porphyrin unit; 4320 min; read-out: ED50 (concentration at which about half of the cells are no longer vital)
Experimental: Determination of the phototoxicity (ED50) of compound Ic of WO 94/07894 (I) and of the title compound of Example 1d) (II) on a tumor cell culture.
In 25 ml culture flasks, a cell culture of human colon carcinoma (HT-29 P9) is reproduced for 3 days at 37° C. The cultures are divided into two groups and mixed with solutions of test substances (50 mmol of porphyrin unit (PE)/l, diluted with fetal calf serum) in increasing amounts (0; 1.5; 5; 8.5; 12; 15.5; 19 μmol of PE/l). The samples are irradiated for three days with a xenon lamp (8.5 k Lux, UV filter). The first group daily received 2 irradiations of 30 minutes each at an interval of 4 hours. For the rest of the time, it remains in the dark in an incubator. The second group is not exposed to light and remains in the dark in the incubator for the entire time. On the fourth day, the cell growth is determined by live-dead coloration and counting with the counting chamber.
The table indicates the concentration at which about half of the cells are no longer vital. (I: Example 1c of DE 4232925; II: Title compound of Example 1d)

[2] = test system: human colon carcinomas (HT-29 P9); assay type: in vivo, hairless mouse
Experimental: Phototoxic effect of the compound [mu-16,16'-(7,12-diethyl-3,8,13,17-tetramethylporphyrin-2,18-diyl]bis[3,6,9-tris(carboxymethyl)-11,14-dioxo-3,6,9,12,13-pentaazahexadecanoato]}(8-)]}digadolinato(2-), disodium (Example 1c of WO 94/07894) on a tumor of a hairless mouse
Intracutaneous human colon carcinomas (HT-29 P9) are implanted in the sides of 15 hairless mice that weigh 24-30 g. The tumors are allowed to grow to a size of 5-10 mm. […] On days 1 and 3, i.v. substance is administered to the anesthetized animals. In this case, the animals of group 1 receive 2×130 μl of 0.9% NaCl solution, and they remain in the dark for the entire time. The animals of the second group receive 2×130 μl of a 100 mmol solution of the title compound, which corresponds to a dose of 2×0.5 mmol/kg of body weight. In each case, 30 minutes after administration, the animals are exposed to the light of a xenon lamp (8.5 k Lux, 1 cm glass as a UV filter) for 45 minutes. They spend the rest of the test time in the dark. 2×130 μl of a 100 mmol solution of test substance is also injected into the animals of the third group. The animals remain in the dark, however, for the duration of the test. On the 6th day after the substance is administered, the animals are sacrificed in ether. The tumor is measured, examined macroscopically, removed and tested histologically. […] In group 1, the range is 6.5×7.7 mm^2 up to 8.6×12.0 mm^2. In the very large tumors, which are fed by numerous blood vessels, small lesions of the skin (possibly bite marks) and in some cases deeper bleeding are evident in the center. […] With the animals of group 2, the following observations are made: […]

skin = conditions: in vivo; cited from earlier work

Compound | IC50 [1] [µM] | Histology: diameter of multifocal central necrosis ([2]; group 2, 2×0.5 mmol/kg i.v. + light, three non-eroded tumors) | Phototoxic action (overall) ([2]; group 2, substance + light) | Tumor growth into the muscle layer ([2]; group 2, substance + light) | Tumor size / tumor growth at end of test ([2]; group 2, substance + light) | Histology: diameter of multifocal central necrosis ([2]; group 3, 2×130 μl of 100 mmol solution, kept in the dark) | Tumor growth ([2]; group 3, substance, kept in the dark) | Duration of skin sensitization (skin)
[mu-16,16'-(7,12-diethyl-3,8,13,17-tetramethylporphyrin-2,18-diyl]bis[3,6,9-tris(carboxymethyl)-11,14-dioxo-3,6,9,12,13-pentaazahexadecanoato]}(8-)]}digadolinato(2-), disodium [Example 1c of WO 94/07894] | 6.4 | 1.5-2.1 mm | strong phototoxic action | The tumor did not grow into the muscle layer | Comparative measurement of tumor size was no longer possible in view of the extent of the destruction of the tumors. Tumor growth took place, if at all, only in the periphery and in deep tumor layers | 0.1-0.8 mm | The tumors continue to fluorish | –
Oc1cccc(-c2c3nc(c(-c4cccc(O)c4)c4ccc([nH]4)c(-c4cccc(O)c4)c4nc(c(-c5cccc(O)c5)c5ccc2[nH]5)CC4)C=C3)c1 [m-THPC] | – | – | – | – | – | – | – | ~ 3 weeks
{Mu-[(16,16'-[zinc(II)-7,12-diethyl-3,8,13,17-tetramethylporphyrin-2,18-diyl]-bis[3,6,9-tris(carboxymethyl)-11,14-dioxo-3,6,9,12,13-pentaazahexadecanoato]}(8-)]}-digadolinato(2-), disodium [Example 1d] | 5.1 | – | – | – | – | – | – | –
